Legend:
Sertoli 42GPA9 cells = assay: Autophagic vacuolation of Sertoli cells (light, electron and confocal microscopy); assay type: cell-based, mouse; conditions: for effect on Lindane-induced vacuolation: pretreatment 90 min before Lindane 50 µM, 3 MA 30 mM, BafA1 100 nM, NPPB 25 µM; for effect on Lindane-preformed vacuoles: added after vacuole formation; for induction of vacuolation / autophagy by the chemical alone: Lindane 50 µM, DDT 1.8 µM, Bϕ 90 µM, PCP 15 µM, SB203580 10 µM, NH4Cl 5 mM
Experimental: Autophagy was induced either by starvation or by treatment with Lindane under nutrient-rich condition.
(§1) When bafilomycin A1 (BafA1, V-ATPase-specific inhibitor, 100 nM, Sigma); Park Davis Inhibitor PD98059 (MEK1-specific inhibitor, 10 µM, Cell Signaling), H89 (PKA inhibitor, 5 µM, Calbiochem), 3-Methyladenine (3 MA, autophagy-specific inhibitor, 10-30 mM, Sigma) or NPPB [5-nitro-2-(3-phenylpropylamino) benzoic acid, Cl^- channel blocker, 25 µM, Sigma] was used, it was added to the starvation medium for 90 min, prior to Lindane addition or nutrient deprivation.
The ultrastructural changes caused by Lindane or starvation in Sertoli and renal cells were analysed by transmission electron microscopy, as previously described (57). […] Cell pellets were then rinsed in cacodylate buffer, postfixed in 1% OsO4 for 1 h at 4°C, dehydrated through graded ethanol washes, and embedded in epoxy resin. Oriented […] sections were obtained with diamond knives, and representative areas were chosen for ultra-thin sectioning. […] 30-50 micrographs were taken randomly from each sample at primary magnification × 10,000.
Sertoli cells seeded on glass coverslips were transiently transfected with EGFP-Rab7 or MEK1^+-HA expression plasmids using Fugene 6 reagent (Roche), washed and allowed to recover overnight before addition of Lindane (50 µM). […] To determine the pH of the Lindane-induced vacuoles, living cells were stained with acridine-orange (5 µg/ml, Sigma), a membrane-permeable weak base whose fluorescence shifts from green at neutral pH to red in acidic compartments (59). 10 min later, cells were washed and directly observed under a confocal microscope.

CFTR^-/- cells = assay: Starvation-induced autophagic death of CFTR-/- renal cells; assay type: cell-based, mouse; conditions: nutrient-free medium
Experimental: (§2) For nutrient deprivation, cells were washed with DMEM and first starved in minimal medium lacking serum for 90 min. Cells were then washed again with PBS and deprived for up to 16 h in nutrient-free medium lacking amino acids, vitamins, and serum (HBSS, 0.1% BSA, 20 mM HEPES, Sigma #H8264). As controls, cells were incubated in this nutrient-free medium supplemented with a mixture of non essential amino acids (0.1 mM, GIBCO, #11140-035).

p42^ERK2 and p44^ERK1 = assay: ERK activation by anti-phospho-ERK Western blotting of cell lysates; assay type: cell-based, mouse; conditions: for ERK activation in Sertoli cells: Lindane 50 µM, DDT 1.8 µM, Bϕ 90 µM, PCP 15 µM; for effect on Lindane-induced ERK activation: pretreatment, PD98059 10 µM, NPPB 25 µM, 90 min
Text: (§3) After stripping, equal loadings of proteins were verified by reprobing the blots with anti-ERK1 (Santa Cruz Biotechnology).

Sertoli cell = conditions: reported, ref (84); cited from earlier work
PKA = assay: CREB phosphorylation as readout of PKA activity; assay type: cell-based; conditions: H89
Text: The emerging issue is therefore how Lindane could activate CFTR Cl^- currents. One possibility would be that Lindane directly activates CFTR, but this appears unlikely because it required minutes instead of seconds to increase Cl^- conductance. […] To further explore this hypothesis, we tested the effect of Lindane on the renal proximal cell line (PCT1). […] Of particular interest, we provide several lines of evidence that the CFTR Δex10 channels remained functional in response to Lindane in PCT cells. […] These finding provide the first evidence that an agonist, e.g. Lindane, could activate CFTR Cl- current independently of PKA, raising the promise for new strategies using Lindane to restore Cl-conductance in cystic fibrosis patients with CFTR variants on PKA sites.

CFTR^+/+ cells = assay: Starvation-induced autophagic death of CFTR+/+ renal cells; assay type: cell-based, mouse; conditions: 16 hours nutrient deprivation
Experimental: as §2, §1

CFTR Cl^- channels = CFTR Cl^- channels (Homo sapiens, UniProt P13569); conditions: NPPB 0.1 mM, glibenclamide 0.1 mM, external DIDS 1 mM; review (41); cited from earlier work
CFTR Cl^- channel = CFTR Cl^- channel (Mus musculus, UniProt P26361); assay: Whole-cell patch-clamp Cl- currents in Sertoli cells; assay type: cell-based; set-up: endogenous in cells; host or cells: Sertoli 42GPA9 cell line (mouse)
Experimental: Whole cell currents were monitored from Sertoli cells, CFTR^-/- and WT renal epithelial cells with an RK 400 amplifier (Biologic, Münster, Germany) as previously described (40). The bath (extracellular) solution consisted of 140 mM NMDGCl (N-methyl-D-glucamine chloride), 5 mM D-Glucose, 1 mM CaCl2, and 10 mM HEPES, pH 7.4. Patch pipette (intracellular) solution contained 140 mM NMDGCl, 5 mM D-Glucose, 5 mM EGTA, 5 mM MgATP, and 10 mM HEPES, pH 7.4. Osmolarity of both solutions was adjusted to 280 mOSM by adding mannitol. These solutions were designed to study Cl^- currents because Cl^- is the sole permeant ion in these conditions and to prevent Ca^2+ activated Cl^- currents by the addition of EGTA in the patch solution. After establishment of whole cell configuration, cells were stimulated by the addition of Lindane (50 µM), FSK (10 µM), vehicle (Me2S0 or ethanol) in the absence or the presence of NPPB (0.1mM), DIDS (4,4'-diisothiocyanatostilbene-2,2'-disulfonic acid, 1 mM, Sigma), glibenclamide (0.1mM, Sigma) or PD98059 (10 µM) in the bath solution. The cell membrane potential was clamped at -50mV and 400 ms pulses were applied from -100 to +120 mV with increments of 20 mV every 2 s. To generate whole cell current-voltage (I-V) relationship, membrane currents resulting from voltage stimuli were recorded for at least 3 min and analysed using an IBM-AT-compatible computer equipped with Digidata 1200 interface (Axon Instruments) and pCLAMP software (versions 5.51 and 6.0, Axon Instruments), respectively. Statistics-Results are expressed as mean ± S.E. of n observations using the Student's t test.

p38 = p38 / Jun kinase activation by Western blotting of Sertoli cell lysates; assay type: cell-based, mouse; conditions: Sertoli cell lysates treated for 15 min
Text: as §3

Chain of CFTR Cl^- channels (P13569 whole entry): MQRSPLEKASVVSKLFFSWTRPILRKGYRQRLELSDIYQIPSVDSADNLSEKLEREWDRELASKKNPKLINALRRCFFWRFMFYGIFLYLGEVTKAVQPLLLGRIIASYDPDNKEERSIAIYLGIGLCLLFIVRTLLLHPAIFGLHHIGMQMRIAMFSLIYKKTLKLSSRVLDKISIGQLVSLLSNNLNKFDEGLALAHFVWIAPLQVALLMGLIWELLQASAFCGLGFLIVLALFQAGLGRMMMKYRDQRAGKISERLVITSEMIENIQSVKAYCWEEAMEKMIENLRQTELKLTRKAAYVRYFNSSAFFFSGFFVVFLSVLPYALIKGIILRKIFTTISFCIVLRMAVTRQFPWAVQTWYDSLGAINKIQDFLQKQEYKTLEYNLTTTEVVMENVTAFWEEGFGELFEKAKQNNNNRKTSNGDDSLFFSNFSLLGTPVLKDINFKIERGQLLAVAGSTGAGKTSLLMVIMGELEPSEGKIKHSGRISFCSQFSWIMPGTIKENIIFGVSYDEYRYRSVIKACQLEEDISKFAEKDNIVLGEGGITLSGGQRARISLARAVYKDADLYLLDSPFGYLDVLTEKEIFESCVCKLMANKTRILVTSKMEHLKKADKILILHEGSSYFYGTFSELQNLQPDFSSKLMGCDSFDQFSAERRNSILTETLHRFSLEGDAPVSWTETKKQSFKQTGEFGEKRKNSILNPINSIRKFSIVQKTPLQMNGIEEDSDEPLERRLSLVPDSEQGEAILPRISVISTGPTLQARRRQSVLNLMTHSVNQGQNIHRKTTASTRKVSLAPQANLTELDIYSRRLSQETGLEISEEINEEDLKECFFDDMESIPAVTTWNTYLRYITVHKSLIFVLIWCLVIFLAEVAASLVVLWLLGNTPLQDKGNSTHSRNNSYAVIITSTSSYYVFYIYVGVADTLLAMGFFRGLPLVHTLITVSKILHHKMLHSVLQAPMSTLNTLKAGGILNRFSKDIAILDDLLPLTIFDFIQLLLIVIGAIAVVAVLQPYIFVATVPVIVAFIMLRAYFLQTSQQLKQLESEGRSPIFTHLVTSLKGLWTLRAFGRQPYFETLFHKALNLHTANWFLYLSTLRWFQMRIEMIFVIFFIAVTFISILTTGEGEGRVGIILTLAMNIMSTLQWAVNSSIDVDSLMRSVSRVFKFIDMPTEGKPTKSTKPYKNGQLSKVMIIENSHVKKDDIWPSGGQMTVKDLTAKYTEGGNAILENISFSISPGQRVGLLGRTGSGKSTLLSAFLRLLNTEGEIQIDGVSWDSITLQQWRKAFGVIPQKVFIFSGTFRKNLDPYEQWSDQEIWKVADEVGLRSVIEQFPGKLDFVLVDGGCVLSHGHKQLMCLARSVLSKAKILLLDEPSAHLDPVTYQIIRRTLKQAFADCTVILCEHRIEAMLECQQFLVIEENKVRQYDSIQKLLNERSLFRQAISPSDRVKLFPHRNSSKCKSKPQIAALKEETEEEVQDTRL
Chain of CFTR Cl^- channel (P26361 whole entry): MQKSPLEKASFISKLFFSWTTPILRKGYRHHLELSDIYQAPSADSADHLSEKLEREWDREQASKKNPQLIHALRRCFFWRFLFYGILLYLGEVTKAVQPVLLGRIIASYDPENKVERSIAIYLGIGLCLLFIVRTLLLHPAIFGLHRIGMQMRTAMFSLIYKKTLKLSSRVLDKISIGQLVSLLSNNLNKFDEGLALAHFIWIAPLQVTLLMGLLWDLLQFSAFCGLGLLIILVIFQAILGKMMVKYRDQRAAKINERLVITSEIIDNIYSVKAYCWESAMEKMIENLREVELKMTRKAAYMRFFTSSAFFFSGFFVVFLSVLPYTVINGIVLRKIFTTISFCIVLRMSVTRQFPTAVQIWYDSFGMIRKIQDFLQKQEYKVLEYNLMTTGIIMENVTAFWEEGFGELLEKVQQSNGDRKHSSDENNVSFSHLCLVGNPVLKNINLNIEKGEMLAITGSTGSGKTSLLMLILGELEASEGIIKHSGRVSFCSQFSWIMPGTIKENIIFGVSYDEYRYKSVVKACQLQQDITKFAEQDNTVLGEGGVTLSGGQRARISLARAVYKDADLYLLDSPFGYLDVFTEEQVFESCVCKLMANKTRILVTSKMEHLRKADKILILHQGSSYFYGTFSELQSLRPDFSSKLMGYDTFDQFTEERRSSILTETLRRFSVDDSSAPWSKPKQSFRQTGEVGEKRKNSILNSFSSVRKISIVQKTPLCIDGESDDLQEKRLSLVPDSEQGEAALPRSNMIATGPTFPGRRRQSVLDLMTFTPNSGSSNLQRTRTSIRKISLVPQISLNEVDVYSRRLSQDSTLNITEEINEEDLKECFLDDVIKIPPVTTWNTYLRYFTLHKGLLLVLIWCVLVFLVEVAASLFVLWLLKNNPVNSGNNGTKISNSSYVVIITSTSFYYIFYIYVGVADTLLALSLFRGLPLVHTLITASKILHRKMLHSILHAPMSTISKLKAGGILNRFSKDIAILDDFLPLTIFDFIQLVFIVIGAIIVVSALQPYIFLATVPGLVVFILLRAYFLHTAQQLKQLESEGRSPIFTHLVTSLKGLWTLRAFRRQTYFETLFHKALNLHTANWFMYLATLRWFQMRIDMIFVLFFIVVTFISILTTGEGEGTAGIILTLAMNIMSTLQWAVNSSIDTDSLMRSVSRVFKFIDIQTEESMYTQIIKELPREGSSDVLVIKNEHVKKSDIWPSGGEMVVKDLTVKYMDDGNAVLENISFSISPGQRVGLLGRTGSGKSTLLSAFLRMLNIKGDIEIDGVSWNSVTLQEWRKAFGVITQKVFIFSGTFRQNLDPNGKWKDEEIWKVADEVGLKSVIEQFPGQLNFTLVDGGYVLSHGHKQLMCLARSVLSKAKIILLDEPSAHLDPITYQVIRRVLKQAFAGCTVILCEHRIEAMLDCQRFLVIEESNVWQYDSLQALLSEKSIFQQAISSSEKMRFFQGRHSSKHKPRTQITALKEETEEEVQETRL

For Cn1cnc(N)c2ncnc1-2 [3 MA, 3-Methyladenine], the “effect on Lindane-induced vacuolation” value (Sertoli 42GPA9 cells; 24 h, PD98059 10 µM) was “dramatically reduced” and the “effect on starvation-induced death of CFTR^-/- cells” value (CFTR^-/- cells) was “arrested starvation-induced cell death”.
With CO/C1=C\C(C)=C\[C@@H](C)[C@@H](O)[C@@H](C)C/C(C)=C/C=C/[C@H](OC)[C@@H]([C@@H](C)[C@@H](O)[C@H](C)[C@@]2(O)C[C@@H](O)[C@H](C)[C@@H](C(C)C)O2)OC1=O [BafA1, bafilomycin A1] the “effect on Lindane-preformed vacuoles” value (Sertoli 42GPA9 cells) was “collapsed Lindane-preformed vacuoles” and the “effect on Lindane-induced vacuolation” value (Sertoli 42GPA9 cells; 24 h, PD98059 10 µM) was “prevented their formation”.
For Clc1ccc(C(c2ccc(Cl)cc2)C(Cl)(Cl)Cl)cc1 [DDT], the “induction of vacuolation / autophagy by the chemical alone” value (from here on “induction of vacuolation / autophagy”) (Sertoli 42GPA9 cells; 24 h) is listed as “induced vacuolation”, the “ERK activation in Sertoli cells” value (p42^ERK2 and p44^ERK1) is listed as “induced the activation of both p42^ERK2 and p44^ERK1” and the “Sertoli cell vacuolation in vivo” value (Sertoli cell) is listed as “reported to promote Sertoli cell vacuolation”.
With O=S(=O)(NCCNCC=Cc1ccc(Br)cc1)c1cccc2cnccc12 [H89] the “effect on Lindane-induced CREB phosphorylation” value (PKA) was “failed to counteract Lindane-induced CREB phosphorylation”.
With Cl.N [NH4Cl] the “induction of vacuolation / autophagy” value (Sertoli 42GPA9 cells; 24 h) was “did not alter cell morphology” and the “effect on toxicant-induced vacuole development” value (Sertoli 42GPA9 cells; NH4Cl 5 mM added to medium) was “accelerated toxicant-induced vacuole development”.
In the case of O=C(O)c1cc([N+](=O)[O-])ccc1NCCCc1ccccc1 [NPPB, 5-nitro-2-(3-phenylpropylamino) benzoic acid], the “outcome of CFTR^+/+ cells under nutrient deprivation in the presence of inhibitor” value (CFTR^+/+ cells) is reported as “cell death”, the “effect on Lindane-preformed vacuoles” value (Sertoli 42GPA9 cells) is reported as “collapsed Lindane-preformed vacuoles” and the “effect on Lindane-induced vacuolation” value (Sertoli 42GPA9 cells; 24 h, PD98059 10 µM) is reported as “abrogated Lindane-induced vacuolation”. For the same compound, the “effect on Lindane-induced ERK activation” value (p42^ERK2 and p44^ERK1) was “still stimulated” and the “sensitivity of CFTR Cl^- channels to blocker” value (CFTR Cl^- channels) was “sensitive”.
In the case of COc1cccc(-c2cc(=O)c3ccccc3o2)c1N [PD98059], the “outcome of CFTR^+/+ cells under nutrient deprivation in the presence of inhibitor” value (CFTR^+/+ cells) is reported as “cell death”, the “ultrastructure in the presence of inhibitor plus Lindane” value (Sertoli 42GPA9 cells; PD98059 10 µM + Lindane, electron microscopy) is reported as “dramatic accumulation of lamellar structures” and the “effect on chloroquine-induced vacuolation” value (Sertoli 42GPA9 cells; chloroquine 500 µM, 24 h, PD98059 10 µM) is reported as “did not affect chloroquine-induced vacuolation”. For the same compound, the “effect on Lindane-induced vacuolation” value (Sertoli 42GPA9 cells; 24 h, PD98059 10 µM) was “abrogated Lindane-induced vacuolation”, the “effect on Lindane-induced ERK activation” value (p42^ERK2 and p44^ERK1) was “drastically reduced the ability of Lindane to activate ERK” and the “effect on Lindane-induced CFTR Cl- conductance” value (CFTR Cl^- channel; PD98059 10 µM + Lindane) was “dramatically reduced”. For the same compound, the “whole-cell I-V relationship with inhibitor alone” value (CFTR Cl^- channel; PD98059 alone) was “identical to control I-V”.
In the case of Oc1c(Cl)c(Cl)c(Cl)c(Cl)c1Cl [Pentachlorophenol], the “induction of vacuolation / autophagy” value (Sertoli 42GPA9 cells; 24 h) is given as “no vacuolation was observed”, the “ERK activation in Sertoli cells” value (p42^ERK2 and p44^ERK1) is given as “strong activator of ERK1/2” and the “Sertoli cell vacuolation in vivo” value (Sertoli cell) is given as “does not”. For the same compound, the p38 activation (p38) was “concomitantly activated p38”.
For COc1ccc(Cl)cc1C(=O)NCCc1ccc(S(=O)(=O)NC(=O)NC2CCCCC2)cc1 [glibenclamide], the “sensitivity of CFTR Cl^- channels to blocker” value (CFTR Cl^- channels) is listed as “sensitive”.
In the case of biphenol A, the “induction of vacuolation / autophagy” value (Sertoli 42GPA9 cells; 24 h) is reported as “induced vacuolation” and the “ERK activation in Sertoli cells” value (p42^ERK2 and p44^ERK1) is reported as “induced the activation of both p42^ERK2 and p44^ERK1”.

Source: patent EP1655608A1, “CFTR as a component of an autophagy signaling pathway, applications thereof to autophagic diseases, and determination of cystic fibrosis as an autophagic disease” (priority 2004, dated 2006)
